# Measurements as given in patent US11873299B1, “7-(4-((5-(4-chlorobenzylideneamino)-2-thioxo-1,3,4-thiadiazol-3(2H)-yl)methyl)iperazin-1-yl)-1-cyclopropyl-6-fluoro-4-oxo-1,4-dihydroquinoline-3-carboxylic acid as an anti-inflammatory compound” (KING FAISAL UNIVERSITY, priority 2023, dated 2024).
# Experiments:
# [1] = biological target: Bovine Serum Albumin (BSA) (Bos taurus, UniProt P02769); experiment: Bovine Serum Albumin Assay (BSA), inhibition of protein denaturation; assay type: biochemical; details: dilutions of 20, 40, 60, 80, and 100 μg/mL; 0.4% w/v BSA, pH 6.4; 72° C. for 10 minutes; turbidity at 660 nm
# Procedure: Bovine Serum Albumin Assay (BSA)
# In vitro-inflammatory activities of the tested samples were determined using a modified method of the BSA assay reported by Williams et al. BSA solution (0.4%, w/v) was prepared in Tris Buffered Saline. The pH was adjusted to 6.4 with glacial acetic acid. Different dilutions of 20, 40, 60, 80, and 100 μg/mL of 7-(4-((5-(4-chlorobenzylideneamino)-2-thioxo-1,3,4-thiadiazol-3(2H)-yl)methyl)piperazin-1-yl)-1-cyclopropyl-6-fluoro-4-oxo-1,4-dihydroquinoline-3-carboxylic acid (IV) the stock solutions were added to test tubes containing 1 mL of 0.4%, w/v BSA buffer solution. Both negative (solvent) and positive (aspirin) controls were assayed in a similar manner. The solutions were then heated in a water bath at 72° C. for 10 minutes, and cooled for 20 minutes under laboratory conditions. The turbidity of the solutions (level of protein precipitation) was measured at 660 nm in Spectrophotometer (V-770 UV-Visible/NIR Spectrophotometer). The percentage inhibition of precipitation (protein denaturation) was determined relative to the negative control using the following equation:
# [formula] % Anti-Denaturation Activity=% Inhibition of Protein Denaturation=% Anti-inflammatory Activity
# Bovine Serum Albumin (BSA), sequence (P02769 25-607): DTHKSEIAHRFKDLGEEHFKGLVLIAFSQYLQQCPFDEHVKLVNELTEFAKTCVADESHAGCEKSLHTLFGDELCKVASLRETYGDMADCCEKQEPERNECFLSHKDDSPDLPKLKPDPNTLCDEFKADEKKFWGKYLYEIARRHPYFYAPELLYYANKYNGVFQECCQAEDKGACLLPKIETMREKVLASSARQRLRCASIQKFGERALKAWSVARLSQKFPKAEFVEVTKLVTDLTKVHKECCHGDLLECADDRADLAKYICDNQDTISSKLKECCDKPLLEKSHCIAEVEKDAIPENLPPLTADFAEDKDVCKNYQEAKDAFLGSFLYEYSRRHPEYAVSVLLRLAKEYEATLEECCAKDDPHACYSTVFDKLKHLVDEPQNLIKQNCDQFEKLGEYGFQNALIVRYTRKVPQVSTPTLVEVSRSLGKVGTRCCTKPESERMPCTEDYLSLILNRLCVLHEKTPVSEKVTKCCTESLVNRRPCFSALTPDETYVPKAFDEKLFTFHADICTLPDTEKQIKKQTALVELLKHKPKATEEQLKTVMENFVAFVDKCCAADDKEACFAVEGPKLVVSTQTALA
compound,measurement,setting,value
"O=C(O)c1cn(C2CC2)c2cc(N3CCN(Cn4nc(/N=C/c5ccc(Cl)cc5)sc4=S)CC3)c(F)cc2c1=O [IV, 7-(4-((5-(4-chlorobenzylideneamino)-2-thioxo-1,3,4-thiadiazol-3(2H)-yl)methyl)piperazin-1-yl)-1-cyclopropyl-6-fluoro-4-oxo-1,4-dihydroquinoline-3-carboxylic acid]",in vitro anti-inflammatory activity (inhibition of protein denaturation),[1],considerable anti-inflammatory effect
same,melting point,,221 to 223 °C
